Results published in ChEMBL document CHEMBL5058643, “Data for DCP probe BI-2081” (2022).
Active and inactive are the calls of the source. The calls are words filed in the database; no cut-off is given here.

How the values were obtained:
[1] = target: T1, Alpha-1B adrenergic receptor (Homo sapiens) (UniProt P35368); assay: ALPHA1B/R Eurofins SafetyScreen44 (BI); settings: Rattus norvegicus; Compound concentration 10.0 uM
T1 sequence (whole entry): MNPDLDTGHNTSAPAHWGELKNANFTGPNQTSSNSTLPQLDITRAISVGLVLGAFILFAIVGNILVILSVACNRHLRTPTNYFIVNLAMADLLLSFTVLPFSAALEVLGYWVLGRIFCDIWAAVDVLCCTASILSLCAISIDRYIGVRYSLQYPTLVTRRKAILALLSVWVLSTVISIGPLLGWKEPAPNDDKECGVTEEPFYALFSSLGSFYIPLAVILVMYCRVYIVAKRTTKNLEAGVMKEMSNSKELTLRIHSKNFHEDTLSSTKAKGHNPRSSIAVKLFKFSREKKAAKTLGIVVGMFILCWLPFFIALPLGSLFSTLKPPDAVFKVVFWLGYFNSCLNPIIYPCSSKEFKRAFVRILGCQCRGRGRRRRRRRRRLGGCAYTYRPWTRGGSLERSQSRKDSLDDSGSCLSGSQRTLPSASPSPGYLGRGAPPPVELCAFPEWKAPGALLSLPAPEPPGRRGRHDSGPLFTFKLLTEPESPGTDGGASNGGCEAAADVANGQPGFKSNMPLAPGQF

[2] = target: Glutamate receptor ionotropic, NMDA 2A (Rattus norvegicus) (UniProt Q00959); assay: NMDAPHSI/R Eurofins SafetyScreen44 (BI); settings: Compound concentration 10.0 uM
[3] = target: B1 bradykinin receptor (Homo sapiens) (UniProt P46663); assay: B1/H Eurofins SafetyScreen44 (BI); settings: Compound concentration 10.0 uM
[4] = target: Adenosine receptor A3 (Homo sapiens) (UniProt P0DMS8); assay: A3/H Eurofins SafetyScreen44 (BI); settings: Compound concentration 10.0 uM
[5] = target: Interleukin-1 beta (Mus musculus) (UniProt P10749); assay: IL-1 Eurofins SafetyScreen44 (BI); settings: Compound concentration 10.0 uM
[6] = target: Beta-1 adrenergic receptor (Homo sapiens) (UniProt P08588); settings: Compound concentration 10.0 uM
[7] = target: T2, Muscarinic acetylcholine receptor M2 (Homo sapiens) (UniProt P08172); assay: M2/HU Eurofins SafetyScreen44 (BI); settings: Compound concentration 10.0 uM
T2 sequence (whole entry): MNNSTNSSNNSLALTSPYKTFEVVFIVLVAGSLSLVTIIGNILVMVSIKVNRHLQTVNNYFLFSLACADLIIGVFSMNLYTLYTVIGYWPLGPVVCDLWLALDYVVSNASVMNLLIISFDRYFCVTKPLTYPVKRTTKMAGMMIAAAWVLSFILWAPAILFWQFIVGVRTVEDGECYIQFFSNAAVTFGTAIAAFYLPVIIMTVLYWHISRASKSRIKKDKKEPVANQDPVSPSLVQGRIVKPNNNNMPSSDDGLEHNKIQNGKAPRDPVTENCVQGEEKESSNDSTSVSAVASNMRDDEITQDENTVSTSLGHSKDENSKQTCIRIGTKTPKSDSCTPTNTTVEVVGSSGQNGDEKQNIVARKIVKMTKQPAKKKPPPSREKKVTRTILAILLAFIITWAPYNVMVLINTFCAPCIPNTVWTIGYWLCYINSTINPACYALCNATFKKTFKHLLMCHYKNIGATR

[8] = target: Adenosine receptor A2a (Homo sapiens) (UniProt P29274); assay: A2A/HU Eurofins SafetyScreen44 (BI); settings: Compound concentration 10.0 uM
[9] = target: Muscarinic acetylcholine receptor M3 (Homo sapiens, UniProt P20309); assay: M3/HU Eurofins SafetyScreen44 (BI)
[10] = target: T3, 5-hydroxytryptamine receptor 1A (Homo sapiens) (UniProt P08908); assay: 5HT1A/HU Eurofins SafetyScreen44 (BI); settings: Compound concentration 10.0 uM
T3 sequence (whole entry): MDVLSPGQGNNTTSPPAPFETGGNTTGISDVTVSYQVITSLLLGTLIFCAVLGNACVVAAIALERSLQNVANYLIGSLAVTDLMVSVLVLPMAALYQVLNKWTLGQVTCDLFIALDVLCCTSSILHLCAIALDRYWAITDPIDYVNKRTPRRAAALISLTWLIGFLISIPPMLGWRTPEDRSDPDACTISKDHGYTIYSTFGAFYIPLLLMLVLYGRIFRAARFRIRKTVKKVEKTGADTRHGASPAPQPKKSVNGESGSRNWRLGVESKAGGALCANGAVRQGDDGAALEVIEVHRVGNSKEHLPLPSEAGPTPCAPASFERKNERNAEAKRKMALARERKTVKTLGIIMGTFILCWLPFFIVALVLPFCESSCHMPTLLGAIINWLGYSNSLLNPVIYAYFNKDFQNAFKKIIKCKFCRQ

[11] = target: Histamine H3 receptor (Homo sapiens) (UniProt Q9Y5N1); assay: H3/H Eurofins SafetyScreen44 (BI); settings: Compound concentration 10.0 uM
[12] = target: Free fatty acid receptor 1 (Homo sapiens, UniProt O14842); assay: FFAR1 biochemical assay
[13] = target: T4, Alpha-2A adrenergic receptor (Homo sapiens) (UniProt P08913); assay: ALPHA2A/H Eurofins SafetyScreen44 (BI)
T4 sequence (whole entry): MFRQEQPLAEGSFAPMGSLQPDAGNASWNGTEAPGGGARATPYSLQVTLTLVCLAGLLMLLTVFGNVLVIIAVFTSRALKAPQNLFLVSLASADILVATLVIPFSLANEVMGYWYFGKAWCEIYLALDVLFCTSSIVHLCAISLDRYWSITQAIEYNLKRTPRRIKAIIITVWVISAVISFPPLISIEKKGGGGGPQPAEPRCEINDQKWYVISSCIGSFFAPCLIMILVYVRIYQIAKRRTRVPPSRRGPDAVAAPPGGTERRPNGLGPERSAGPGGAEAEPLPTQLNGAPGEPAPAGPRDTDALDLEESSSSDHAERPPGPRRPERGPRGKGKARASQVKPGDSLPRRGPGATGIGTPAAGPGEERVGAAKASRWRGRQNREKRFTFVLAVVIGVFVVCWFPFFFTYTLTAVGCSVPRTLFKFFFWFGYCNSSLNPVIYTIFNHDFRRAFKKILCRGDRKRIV

[14] = target: Voltage-dependent L-type calcium channel subunit alpha-1C (Rattus norvegicus, UniProt P22002); assay: CA+/DILSI/RA Eurofins SafetyScreen44 (BI); settings: compound concentration 10 uM, read-out: % Ctrl
hERG (KCNH2) = hERG (KCNH2) (Homo sapiens, UniProt Q12809); assay: HERG_DOFETILIDE Eurofins SafetyScreen44 (BI); design: mode of action inhibitor; settings: probe [3H] Dofetilide, compound concentration 10 uM, read-out: % Ctrl
[15] = target: Cannabinoid receptor 2 (Homo sapiens) (UniProt P34972); assay: CB2/PERIPH/H Eurofins SafetyScreen44 (BI); settings: Compound concentration 10.0 uM
[16] = target: Tyrosine-protein kinase Lck (Homo sapiens) (UniProt P06239); assay: LCK_CE Eurofins SafetyScreen44 (BI); settings: Compound concentration 10.0 uM
Tyrosine-protein kinase Lck (Homo sapiens), sequence (P06239 2-509 limits assumed): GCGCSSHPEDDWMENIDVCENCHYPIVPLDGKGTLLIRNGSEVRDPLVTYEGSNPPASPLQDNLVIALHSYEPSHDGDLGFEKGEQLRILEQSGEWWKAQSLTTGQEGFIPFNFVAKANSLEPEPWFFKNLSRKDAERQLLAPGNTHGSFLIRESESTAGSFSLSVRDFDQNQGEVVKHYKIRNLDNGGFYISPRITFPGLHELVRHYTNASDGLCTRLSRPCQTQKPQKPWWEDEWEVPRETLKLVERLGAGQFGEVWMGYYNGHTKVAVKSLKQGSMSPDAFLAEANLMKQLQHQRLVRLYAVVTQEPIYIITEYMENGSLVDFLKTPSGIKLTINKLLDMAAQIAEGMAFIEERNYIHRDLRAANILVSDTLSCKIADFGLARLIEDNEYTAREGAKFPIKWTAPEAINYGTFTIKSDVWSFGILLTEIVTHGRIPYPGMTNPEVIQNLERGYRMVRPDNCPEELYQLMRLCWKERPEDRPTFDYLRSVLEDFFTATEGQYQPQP

Muscarinic acetylcholine receptor M3, sequence (P20309 whole entry, looked up): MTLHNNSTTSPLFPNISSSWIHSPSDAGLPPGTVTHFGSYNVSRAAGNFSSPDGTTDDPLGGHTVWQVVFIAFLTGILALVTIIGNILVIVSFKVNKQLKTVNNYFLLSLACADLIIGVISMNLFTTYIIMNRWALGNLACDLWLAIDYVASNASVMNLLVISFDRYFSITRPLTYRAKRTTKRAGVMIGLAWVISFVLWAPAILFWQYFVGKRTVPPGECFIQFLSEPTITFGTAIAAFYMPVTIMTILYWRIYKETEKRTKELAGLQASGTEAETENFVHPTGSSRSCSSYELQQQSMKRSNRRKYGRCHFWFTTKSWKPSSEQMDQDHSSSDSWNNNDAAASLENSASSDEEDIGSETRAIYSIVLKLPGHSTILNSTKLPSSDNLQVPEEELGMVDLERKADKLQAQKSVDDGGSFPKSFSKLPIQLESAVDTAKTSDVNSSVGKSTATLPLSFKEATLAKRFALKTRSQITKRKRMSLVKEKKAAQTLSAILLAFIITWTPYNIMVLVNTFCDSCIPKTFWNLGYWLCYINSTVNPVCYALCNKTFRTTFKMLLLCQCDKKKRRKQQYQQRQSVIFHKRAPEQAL
Beta-1 adrenergic receptor (Homo sapiens), sequence (P08588 whole entry, looked up): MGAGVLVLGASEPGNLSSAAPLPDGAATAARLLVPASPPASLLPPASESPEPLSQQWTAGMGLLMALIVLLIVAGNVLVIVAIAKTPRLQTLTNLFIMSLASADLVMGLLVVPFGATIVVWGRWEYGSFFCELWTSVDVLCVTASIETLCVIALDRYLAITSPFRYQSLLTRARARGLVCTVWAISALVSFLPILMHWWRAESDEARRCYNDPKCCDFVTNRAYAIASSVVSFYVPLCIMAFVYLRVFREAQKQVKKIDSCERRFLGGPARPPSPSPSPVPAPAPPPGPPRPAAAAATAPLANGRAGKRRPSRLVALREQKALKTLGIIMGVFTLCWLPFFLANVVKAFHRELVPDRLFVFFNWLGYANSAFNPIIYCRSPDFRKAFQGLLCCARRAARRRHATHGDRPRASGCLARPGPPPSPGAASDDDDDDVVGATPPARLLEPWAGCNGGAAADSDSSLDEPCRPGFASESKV
Adenosine receptor A3 (Homo sapiens), sequence (P0DMS8 whole entry): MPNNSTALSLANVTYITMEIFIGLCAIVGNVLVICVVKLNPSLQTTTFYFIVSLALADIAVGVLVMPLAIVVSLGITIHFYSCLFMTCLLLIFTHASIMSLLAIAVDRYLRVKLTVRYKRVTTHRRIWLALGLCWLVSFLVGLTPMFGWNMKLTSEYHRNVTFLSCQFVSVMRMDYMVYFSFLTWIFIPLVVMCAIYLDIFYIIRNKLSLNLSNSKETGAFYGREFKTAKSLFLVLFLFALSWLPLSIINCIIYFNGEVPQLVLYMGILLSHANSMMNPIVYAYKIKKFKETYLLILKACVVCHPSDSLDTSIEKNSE
Voltage-dependent L-type calcium channel subunit alpha-1C, sequence (P22002 whole entry): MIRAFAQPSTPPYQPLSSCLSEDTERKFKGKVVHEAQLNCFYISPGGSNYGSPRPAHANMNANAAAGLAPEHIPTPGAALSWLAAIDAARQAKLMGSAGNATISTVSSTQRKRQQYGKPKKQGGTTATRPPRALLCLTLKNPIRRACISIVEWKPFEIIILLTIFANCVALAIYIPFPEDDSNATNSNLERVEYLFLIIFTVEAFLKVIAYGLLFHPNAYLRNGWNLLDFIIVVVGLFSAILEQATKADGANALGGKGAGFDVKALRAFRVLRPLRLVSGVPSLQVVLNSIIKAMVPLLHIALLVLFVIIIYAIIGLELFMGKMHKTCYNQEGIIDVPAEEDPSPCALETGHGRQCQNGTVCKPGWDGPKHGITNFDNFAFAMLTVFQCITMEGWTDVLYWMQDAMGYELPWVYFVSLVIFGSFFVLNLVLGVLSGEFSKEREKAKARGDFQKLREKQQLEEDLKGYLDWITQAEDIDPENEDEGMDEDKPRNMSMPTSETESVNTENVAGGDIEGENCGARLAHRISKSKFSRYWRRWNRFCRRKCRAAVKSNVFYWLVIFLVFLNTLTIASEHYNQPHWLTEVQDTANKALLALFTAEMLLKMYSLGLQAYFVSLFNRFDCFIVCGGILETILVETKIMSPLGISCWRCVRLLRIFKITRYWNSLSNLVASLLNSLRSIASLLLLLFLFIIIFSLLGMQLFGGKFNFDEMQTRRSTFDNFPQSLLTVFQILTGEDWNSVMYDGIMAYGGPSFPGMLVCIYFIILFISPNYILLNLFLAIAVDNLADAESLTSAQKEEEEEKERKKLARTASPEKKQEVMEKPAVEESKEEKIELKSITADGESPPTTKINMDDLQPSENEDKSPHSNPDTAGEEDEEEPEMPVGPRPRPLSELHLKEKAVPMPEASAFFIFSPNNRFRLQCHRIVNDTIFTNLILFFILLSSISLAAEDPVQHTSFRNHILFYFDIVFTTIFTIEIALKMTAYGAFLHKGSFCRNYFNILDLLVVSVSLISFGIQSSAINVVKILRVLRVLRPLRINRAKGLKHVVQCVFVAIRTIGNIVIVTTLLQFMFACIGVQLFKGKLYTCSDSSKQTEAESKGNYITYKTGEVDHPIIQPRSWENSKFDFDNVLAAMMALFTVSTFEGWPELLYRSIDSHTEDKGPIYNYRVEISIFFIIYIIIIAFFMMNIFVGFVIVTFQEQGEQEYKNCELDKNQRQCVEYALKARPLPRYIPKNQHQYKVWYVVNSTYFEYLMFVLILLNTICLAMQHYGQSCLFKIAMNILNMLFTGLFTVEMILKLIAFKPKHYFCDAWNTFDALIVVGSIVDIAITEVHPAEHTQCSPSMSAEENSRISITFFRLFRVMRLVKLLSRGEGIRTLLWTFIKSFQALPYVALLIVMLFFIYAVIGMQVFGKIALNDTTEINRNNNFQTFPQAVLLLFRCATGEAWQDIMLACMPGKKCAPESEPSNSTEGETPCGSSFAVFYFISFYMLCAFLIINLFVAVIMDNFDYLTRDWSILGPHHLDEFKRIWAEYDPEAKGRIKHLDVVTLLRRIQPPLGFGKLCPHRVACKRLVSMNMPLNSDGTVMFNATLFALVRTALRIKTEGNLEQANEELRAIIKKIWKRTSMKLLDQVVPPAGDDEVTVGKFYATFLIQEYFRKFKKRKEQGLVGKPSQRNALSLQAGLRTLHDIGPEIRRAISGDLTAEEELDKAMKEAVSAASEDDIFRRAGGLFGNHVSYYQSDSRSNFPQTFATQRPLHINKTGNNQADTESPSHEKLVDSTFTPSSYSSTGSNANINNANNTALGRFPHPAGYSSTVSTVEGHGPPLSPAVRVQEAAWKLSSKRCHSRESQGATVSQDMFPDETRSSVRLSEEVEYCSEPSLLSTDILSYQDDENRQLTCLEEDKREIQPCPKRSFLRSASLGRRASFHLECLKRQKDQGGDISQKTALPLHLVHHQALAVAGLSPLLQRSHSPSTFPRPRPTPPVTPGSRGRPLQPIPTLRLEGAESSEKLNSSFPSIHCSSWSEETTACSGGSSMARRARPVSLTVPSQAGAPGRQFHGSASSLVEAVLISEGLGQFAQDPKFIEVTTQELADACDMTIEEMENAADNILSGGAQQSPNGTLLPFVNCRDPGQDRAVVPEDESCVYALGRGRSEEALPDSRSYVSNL
Cannabinoid receptor 2 (Homo sapiens), sequence (P34972 whole entry): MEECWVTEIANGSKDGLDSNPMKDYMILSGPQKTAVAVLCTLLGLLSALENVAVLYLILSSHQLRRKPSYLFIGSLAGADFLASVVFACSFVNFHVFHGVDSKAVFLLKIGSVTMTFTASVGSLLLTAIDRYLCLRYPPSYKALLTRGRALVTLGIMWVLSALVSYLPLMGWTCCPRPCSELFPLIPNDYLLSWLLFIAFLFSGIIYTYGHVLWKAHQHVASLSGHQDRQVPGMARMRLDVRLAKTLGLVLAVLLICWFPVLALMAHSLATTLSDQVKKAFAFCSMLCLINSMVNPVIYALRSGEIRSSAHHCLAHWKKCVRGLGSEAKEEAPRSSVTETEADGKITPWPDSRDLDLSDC
B1 bradykinin receptor (Homo sapiens), sequence (P46663 whole entry): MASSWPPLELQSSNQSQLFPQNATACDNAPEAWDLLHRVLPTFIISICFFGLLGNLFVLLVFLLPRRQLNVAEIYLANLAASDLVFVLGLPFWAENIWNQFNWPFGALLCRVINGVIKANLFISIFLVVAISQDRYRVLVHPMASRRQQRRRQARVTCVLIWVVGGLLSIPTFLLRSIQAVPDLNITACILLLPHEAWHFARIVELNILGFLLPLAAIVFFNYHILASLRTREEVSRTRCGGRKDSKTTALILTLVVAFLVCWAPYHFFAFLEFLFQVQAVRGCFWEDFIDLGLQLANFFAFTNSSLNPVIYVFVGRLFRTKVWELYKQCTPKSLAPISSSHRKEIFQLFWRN
Interleukin-1 beta (Mus musculus), sequence (P10749 118-269 limits assumed): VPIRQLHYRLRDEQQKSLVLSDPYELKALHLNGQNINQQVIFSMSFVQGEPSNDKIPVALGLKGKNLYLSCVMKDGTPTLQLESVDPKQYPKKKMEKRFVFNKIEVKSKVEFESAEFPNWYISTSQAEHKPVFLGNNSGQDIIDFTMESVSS

Work on `Cc1cc(OCCC(C)(C)O)cc(C)c1-c1ccc(F)c2c1CC[C@H]2Oc1ccc2c(c1)OC[C@H]2CC(=O)O` yielded a residual activity [1] of 114%, a residual activity [2] of 103% and a residual activity [3] of 91%. The residual activity [4] was 100%, the residual activity [5] was 100% and the inhibition [6] was 4.62%. It also gave a residual activity [7] of 92%, a residual activity [8] of 125% and a residual activity ([9]; Compound concentration 0.3 uM) of 83%. For the same molecule, the residual activity ([9]; Compound concentration 1.0 uM) was 75%, the residual activity ([9]; Compound concentration 3.0 uM) was 60% and the residual activity ([9]; Compound concentration 10.0 uM) was 54%. It also gave a residual activity ([9]; Compound concentration 30.0 uM) of 28%, a residual activity [10] of 118% and a residual activity [11] of 111%. For the same molecule, the Ki [12] was 23 nM (active), the residual activity ([13]; Compound concentration 0.1 uM) was 93% and the residual activity ([13]; Compound concentration 0.3 uM) was 90%. The residual activity ([13]; Compound concentration 1.0 uM) was 83%, the residual activity ([13]; Compound concentration 3.0 uM) was 64% and the residual activity ([13]; Compound concentration 10.0 uM) was 5.5%. For the same molecule, the activity at 10 µM [14] was 100% (not active).

With `COCCCS(=O)(=O)c1cc(C)c(-c2ccc(F)c3c2CC[C@H]3Oc2ccc3c(c2)OC[C@H]3CC(=O)O)c(C)c1` the activity at 10 µM (hERG (KCNH2)) was 93% (not active), the residual activity [15] was 115% and the residual activity [16] was 77%.
